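Following 48 hours of exposure in 96-well plates, responses at five concentrations were used to interpolate endpoints linearly. GI50 marks 50% less growth.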 Calls of active or inactive are those of the source. Rule as the data show it: active = GI50 up to about 1.1 µM and inactive = higher.
Legend:
Assay in all cases: growth of human tumour cells (NCI), 48 h
KM12 = test system: KM12
SK-MEL-5 = test system: SK-MEL-5
UACC-62 = test system: UACC-62
SR = test system: SR
DU-145 = test system: DU-145
SK-MEL-2 = test system: SK-MEL-2
CCRF-CEM = test system: CCRF-CEM
T47D = test system: T47D
TK-10 = test system: TK-10
UACC-257 = test system: UACC-257
IGROV-1 = test system: IGROV-1
HCT-15 = test system: HCT-15
BT-549 = test system: BT-549
PC-3 = test system: PC-3
HOP-92 = test system: HOP-92
LOX IMVI = test system: LOX IMVI
SW-620 = test system: SW-620
RXF 393 = test system: RXF 393
SK-OV-3 = test system: SK-OV-3
A498 = test system: A498

Compound	GI50 (KM12)	GI50 (SK-MEL-5)	GI50 (UACC-62)	GI50 (SR)	GI50 (DU-145)	GI50 (SK-MEL-2)	GI50 (CCRF-CEM)	GI50 (T47D)	GI50 (TK-10)	GI50 (UACC-257)	GI50 (IGROV-1)	GI50 (HCT-15) [µM]	GI50 (BT-549)	GI50 (PC-3)	GI50 (HOP-92)	GI50 (LOX IMVI)	GI50 (SW-620)	GI50 (RXF 393)	GI50 (SK-OV-3)	GI50 (A498)
O=C(O)CSc1ccn(Cc2ccccc2)c1	> 100 µM (inactive)	> 100 µM (inactive)	> 100 µM (inactive)	> 100 µM (inactive)	> 100 µM (inactive)	> 100 µM (inactive)	> 100 µM (inactive)	> 100 µM (inactive)	> 100 µM (inactive)	> 100 µM (inactive)	> 100 µM (inactive)	> 100	> 100 µM (inactive)	> 100 µM (inactive)	> 100 µM (inactive)	> 100 µM (inactive)	> 100 µM (inactive)	> 100 µM (inactive)	> 100 µM (inactive)	> 100 µM (inactive)
C=C1COC(O)(C2OCOC(C3CC(=O)NC(=O)C3)C2O)C1C (stereo not drawn)	0.00287 µM (active)	0.00126 µM (active)	0.00429 µM (active)	0.00213 µM (active)	0.00361 µM (active)	0.0016 µM (active)	0.00106 µM (active)	0.00146 µM (active)	0.00895 µM (active)	0.00802 µM (active)	0.00562 µM (active)	0.00478	0.00565 µM (active)	0.0031 µM (active)	0.00244 µM (active)	0.00158 µM (active)	0.0043 µM (active)	0.00404 µM (active)	0.00384 µM (active)	0.0018 µM (active)
CC(C)C(Nc1ncnc2nc[nH]c12)C(=O)O (stereo not drawn)	> 100 µM (inactive)	> 100 µM (inactive)	> 100 µM (inactive)	> 100 µM (inactive)	> 100 µM (inactive)	> 100 µM (inactive)	> 100 µM (inactive)	> 100 µM (inactive)	> 100 µM (inactive)	> 100 µM (inactive)	> 100 µM (inactive)	> 100	> 100 µM (inactive)	> 100 µM (inactive)	> 100 µM (inactive)	> 100 µM (inactive)	> 100 µM (inactive)	> 100 µM (inactive)	> 100 µM (inactive)	> 100 µM (inactive)
CC(=O)CC(=O)N1CCOC1=O	> 10 µM (inactive)	> 10 µM (inactive)	> 10 µM (inactive)	> 10 µM (inactive)	> 10 µM (inactive)	> 10 µM (inactive)	> 10 µM (inactive)	> 10 µM (inactive)	> 10 µM (inactive)	> 10 µM (inactive)	> 10 µM (inactive)	> 10	> 10 µM (inactive)	> 10 µM (inactive)	> 10 µM (inactive)	> 10 µM (inactive)	> 10 µM (inactive)	> 10 µM (inactive)	> 10 µM (inactive)	> 10 µM (inactive)
N=C1N=C(N)c2cc3c(cc21)SCCSCCCSCCS3	11.9 µM (inactive)	16 µM (inactive)	22 µM (inactive)	11.1 µM (inactive)	31.6 µM (inactive)	16.1 µM (inactive)	3.95 µM (inactive)	24.8 µM (inactive)	15.1 µM (inactive)	20.2 µM (inactive)	17.2 µM (inactive)	14.3	14.1 µM (inactive)	15.1 µM (inactive)	23.1 µM (inactive)	4.38 µM (inactive)	11.6 µM (inactive)	15.8 µM (inactive)	18.5 µM (inactive)	> 44.7 µM (inactive)
O=c1oc2ccccc2cc1-c1nc2ccc([N+](=O)[O-])cc2o1	> 100 µM (inactive)	> 100 µM (inactive)	> 100 µM (inactive)	> 100 µM (inactive)	> 100 µM (inactive)	> 100 µM (inactive)	> 100 µM (inactive)	> 100 µM (inactive)	> 100 µM (inactive)	> 100 µM (inactive)	> 100 µM (inactive)	> 100	> 100 µM (inactive)	> 100 µM (inactive)	> 100 µM (inactive)	> 100 µM (inactive)	> 100 µM (inactive)	> 100 µM (inactive)	> 100 µM (inactive)	> 100 µM (inactive)
N#CCCN(CCC#N)c1ccc(/C=N\c2ccc(F)cc2)cc1		14.5 µM (inactive)	0.536 µM (active)	58.9 µM (inactive)	> 100 µM (inactive)	> 16.1 µM (inactive)	20.8 µM (inactive)	> 100 µM (inactive)	> 24 µM (inactive)	> 100 µM (inactive)	45.6 µM (inactive)	1.15	> 100 µM (inactive)	75.3 µM (inactive)	> 100 µM (inactive)	0.236 µM (active)	19.3 µM (inactive)	> 57 µM (inactive)	> 100 µM (inactive)	> 100 µM (inactive)
O=C1C(Cl)=C(N2CCN(c3ncccn3)CC2)C(=O)c2c(O)ccc(O)c21	4.43 µM (inactive)	2.17 µM (inactive)	2.59 µM (inactive)	0.265 µM (active)	4.34 µM (inactive)	1.03 µM (active)	0.211 µM (active)	2.64 µM (inactive)	1.89 µM (inactive)	1.84 µM (inactive)	1.9 µM (inactive)	1.59	2.14 µM (inactive)	3.1 µM (inactive)	2.37 µM (inactive)	1.72 µM (inactive)	1.36 µM (inactive)	1.78 µM (inactive)	24 µM (inactive)	2.9 µM (inactive)
CCC(=O)Nc1cccc(/N=C/c2ccc(OC(=O)/C=C\c3ccccc3)cc2)c1	49.2 µM (inactive)	29.9 µM (inactive)	30.8 µM (inactive)	54.7 µM (inactive)	15.5 µM (inactive)	> 75 µM (inactive)	> 75 µM (inactive)	8.26 µM (inactive)	> 75 µM (inactive)	> 75 µM (inactive)	37.8 µM (inactive)	35.8	37 µM (inactive)	67 µM (inactive)	35.2 µM (inactive)	40.6 µM (inactive)	> 75 µM (inactive)	12.2 µM (inactive)	> 75 µM (inactive)	> 75 µM (inactive)
CCOc1ccc(/N=C/c2ccnc3ccccc23)cc1	19.7 µM (inactive)	8.15 µM (inactive)	60.8 µM (inactive)	0.752 µM (active)	60.3 µM (inactive)	61.8 µM (inactive)	2.63 µM (inactive)	47.9 µM (inactive)	92.3 µM (inactive)	98.6 µM (inactive)	43 µM (inactive)	11.5	34.4 µM (inactive)	31.5 µM (inactive)	49.8 µM (inactive)	13.2 µM (inactive)	4.56 µM (inactive)	> 96.6 µM (inactive)	67.8 µM (inactive)	> 100 µM (inactive)
CCOC(=O)c1cnc2[nH]ccn2c1=O	> 10 µM (inactive)	> 10 µM (inactive)	> 10 µM (inactive)	> 10 µM (inactive)	> 10 µM (inactive)	> 10 µM (inactive)	> 10 µM (inactive)	> 10 µM (inactive)	> 10 µM (inactive)	> 10 µM (inactive)	> 10 µM (inactive)	> 10	> 10 µM (inactive)	> 10 µM (inactive)	> 10 µM (inactive)	> 10 µM (inactive)	> 10 µM (inactive)	> 10 µM (inactive)	> 10 µM (inactive)	5.48 µM (inactive)
C[Si](C)(C)C1=C([Si](C)(C)C)C(Cl)(Cl)C1=O	6.17 µM (inactive)	1.98 µM (inactive)	2.38 µM (inactive)	1.93 µM (inactive)	10.4 µM (inactive)	9.12 µM (inactive)	0.232 µM (active)	1.74 µM (inactive)	1.68 µM (inactive)	2.05 µM (inactive)	3.73 µM (inactive)	1.92	3.63 µM (inactive)	3.76 µM (inactive)	2.04 µM (inactive)	1.58 µM (inactive)	2.27 µM (inactive)	1.9 µM (inactive)	22.6 µM (inactive)	15.5 µM (inactive)
COC(=O)c1ccccc1/C=C1/Cc2cccc(C)c2C1=O	> 100 µM (inactive)	32.8 µM (inactive)	52.2 µM (inactive)	> 100 µM (inactive)	> 100 µM (inactive)		> 100 µM (inactive)	42.5 µM (inactive)	> 100 µM (inactive)	> 100 µM (inactive)	> 100 µM (inactive)	> 100	93.8 µM (inactive)	> 100 µM (inactive)	31.8 µM (inactive)	> 100 µM (inactive)	> 100 µM (inactive)	41.2 µM (inactive)	> 100 µM (inactive)	> 100 µM (inactive)
CC1(C)O[C@H]2OC3CCC(=O)CC3(O)[C@H]2O1 (stereo partly drawn)	> 100 µM (inactive)	> 100 µM (inactive)	> 100 µM (inactive)	> 100 µM (inactive)	> 100 µM (inactive)	> 100 µM (inactive)	> 100 µM (inactive)	> 100 µM (inactive)	> 100 µM (inactive)	> 100 µM (inactive)	> 100 µM (inactive)	> 100	> 100 µM (inactive)	> 100 µM (inactive)	> 73.3 µM (inactive)	> 100 µM (inactive)	> 100 µM (inactive)	> 100 µM (inactive)	> 100 µM (inactive)	> 100 µM (inactive)
N=C(N)N/N=C/c1c(Cl)nc2n1CCS2	34.8 µM (inactive)	> 10 µM (inactive)	> 100 µM (inactive)	50.5 µM (inactive)	90.2 µM (inactive)	> 100 µM (inactive)	71.9 µM (inactive)	> 100 µM (inactive)	> 100 µM (inactive)	> 100 µM (inactive)	> 100 µM (inactive)	> 100	> 100 µM (inactive)	66.5 µM (inactive)	70.3 µM (inactive)	> 100 µM (inactive)	73.8 µM (inactive)	22.5 µM (inactive)	57.3 µM (inactive)	90.8 µM (inactive)

— ChEMBL document CHEMBL1201862, “PubChem BioAssay data set” (2004)
